We go through 15 compounds from patent publication US9284358B2 (UNIVERSITY OF UTAH RESEARCH FOUNDATION, priority 2006, dated 2016).

For one experiment, the target named is T1, human α9α10 nAChR (Homo sapiens, UniProt Q9GZZ6+Q9UGM1).
T1 construct: expressed in transfected cells; host or cells: oocytes
The experiment in a line: cell-based.

The next experiment addresses T2, α9α10 nAChR (Rattus norvegicus, UniProt P43144+Q9JLB5).
T2 construct: expressed in transfected cells; host or cells: oocytes
In words: cell-based.

Positions of bridges follow the written chain, without caps; N, C: chain ends. Residues, ends and D or L forms follow the SMILES beside them. Some results are limits rather than exact numbers.

T1 sequence (Q9UGM1 26-479 limits assumed): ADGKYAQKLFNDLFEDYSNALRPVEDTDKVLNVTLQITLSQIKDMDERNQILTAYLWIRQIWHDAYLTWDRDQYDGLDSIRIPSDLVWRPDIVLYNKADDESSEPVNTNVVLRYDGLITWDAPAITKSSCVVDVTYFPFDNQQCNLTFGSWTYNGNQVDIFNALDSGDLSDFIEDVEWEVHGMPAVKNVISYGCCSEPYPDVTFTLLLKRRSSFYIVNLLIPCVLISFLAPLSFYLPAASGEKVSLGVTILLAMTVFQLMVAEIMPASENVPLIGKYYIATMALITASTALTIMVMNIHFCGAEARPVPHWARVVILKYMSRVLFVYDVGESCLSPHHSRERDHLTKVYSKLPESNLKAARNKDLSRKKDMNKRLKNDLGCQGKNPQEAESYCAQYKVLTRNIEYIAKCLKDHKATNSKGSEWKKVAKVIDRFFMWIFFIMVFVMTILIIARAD
T1 sequence (Q9GZZ6 25-450): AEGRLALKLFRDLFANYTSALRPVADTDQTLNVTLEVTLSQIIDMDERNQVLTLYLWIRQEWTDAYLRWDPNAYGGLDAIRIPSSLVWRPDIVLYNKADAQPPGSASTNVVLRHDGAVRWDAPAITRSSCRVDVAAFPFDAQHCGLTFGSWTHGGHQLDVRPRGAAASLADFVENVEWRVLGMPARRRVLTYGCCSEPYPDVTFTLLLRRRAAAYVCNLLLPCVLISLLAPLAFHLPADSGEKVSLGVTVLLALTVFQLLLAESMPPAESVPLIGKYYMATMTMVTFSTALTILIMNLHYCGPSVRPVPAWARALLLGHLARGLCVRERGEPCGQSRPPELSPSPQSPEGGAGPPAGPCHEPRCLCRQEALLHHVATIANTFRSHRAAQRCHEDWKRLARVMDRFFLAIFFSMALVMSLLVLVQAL
T2 sequence (P43144 26-479 limits assumed): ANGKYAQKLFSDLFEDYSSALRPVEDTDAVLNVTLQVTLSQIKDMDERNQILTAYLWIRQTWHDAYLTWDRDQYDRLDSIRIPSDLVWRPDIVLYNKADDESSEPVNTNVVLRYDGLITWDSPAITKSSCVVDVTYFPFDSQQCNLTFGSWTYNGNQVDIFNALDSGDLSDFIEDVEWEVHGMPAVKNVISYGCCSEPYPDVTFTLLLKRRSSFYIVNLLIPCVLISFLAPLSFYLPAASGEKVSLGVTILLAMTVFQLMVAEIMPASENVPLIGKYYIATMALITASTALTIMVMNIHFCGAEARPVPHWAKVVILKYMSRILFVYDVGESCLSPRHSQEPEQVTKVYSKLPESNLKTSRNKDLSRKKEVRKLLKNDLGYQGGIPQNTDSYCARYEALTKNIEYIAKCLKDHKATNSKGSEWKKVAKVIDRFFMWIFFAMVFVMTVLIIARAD
T2 sequence (Q9JLB5 25-447 limits assumed): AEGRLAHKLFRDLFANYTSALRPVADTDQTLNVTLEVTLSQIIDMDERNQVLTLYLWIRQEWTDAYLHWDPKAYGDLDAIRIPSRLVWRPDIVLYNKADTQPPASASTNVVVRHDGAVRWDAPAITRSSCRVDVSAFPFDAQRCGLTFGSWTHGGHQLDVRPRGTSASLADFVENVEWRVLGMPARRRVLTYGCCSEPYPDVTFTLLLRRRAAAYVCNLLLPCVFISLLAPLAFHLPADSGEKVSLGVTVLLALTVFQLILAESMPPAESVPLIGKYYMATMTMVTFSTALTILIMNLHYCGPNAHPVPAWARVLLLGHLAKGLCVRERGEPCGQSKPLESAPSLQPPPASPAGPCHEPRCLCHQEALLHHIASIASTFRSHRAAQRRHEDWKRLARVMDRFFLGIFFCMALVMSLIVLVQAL

For the compound `C[C@@H](O)[C@@H]1NC(=O)[C@@H]2CSSC[C@@H](C(=O)N[C@@H](CCCNC(=N)N)C(=O)O)NC(=O)[C@H](CCCNC(=N)N)NC(=O)[C@H](Cc3ccc(O)cc3)NC(=O)[C@H](CCCNC(=N)N)NC(=O)[C@H](CSSC[C@H](NC(=O)CN)C(=O)N2)NC(=O)[C@H](CCCNC(=N)N)NC(=O)[C@@H]2CCCN2C(=O)[C@H](CC(=O)O)NC1=O` [SEQ ID NO:3], on human α9α10 nAChR, the IC50 is 281 nM. In the case of `N=C(N)NCCC[C@H](NC(=O)[C@@H]1CSSC[C@@H]2NC(=O)[C@@H](NC(=O)CN)CSSC[C@H](NC(=O)[C@H](CCCNC(=N)N)NC(=O)[C@@H]3CCCN3C(=O)[C@H](CC(=O)O)NC(=O)[C@H](CO)NC2=O)C(=O)N[C@@H](CCCNC(N)=O)C(=O)N[C@@H](Cc2ccc(O)cc2)C(=O)N[C@@H](CCCNC(=N)N)C(=O)N1)C(=O)O` [SEQ ID NO:9], the IC50 against α9α10 nAChR is 2.4 nM; against human α9α10 nAChR, 416 nM. For `N=C(N)NCCCC[C@@H]1NC(=O)[C@@H]2CSSC[C@H](NC(=O)CN)C(=O)N[C@@H](CSSC[C@@H](C(=O)N[C@@H](CCCNC(=N)N)C(=O)O)NC(=O)[C@H](CCCNC(=N)N)NC(=O)[C@H](Cc3ccc(O)cc3)NC1=O)C(=O)N[C@@H](CO)C(=O)N[C@@H](CC(=O)O)C(=O)N1CCC[C@H]1C(=O)N[C@@H](CCCNC(=N)N)C(=O)N2` [SEQ ID NO:11], in that order: greater than 1000 nM and greater than 1000 nM. On to `N=C(N)NCCC[C@H](NC(=O)[C@@H]1CSSC[C@@H]2NC(=O)[C@@H](NC(=O)CN)CSSC[C@H](NC(=O)[C@H](CCCNC(=N)N)NC(=O)[C@@H]3CCCN3C(=O)[C@H](CC(=O)O)NC(=O)[C@H](CO)NC2=O)C(=O)N[C@@H](CCCCN)C(=O)N[C@@H](Cc2ccc(O)cc2)C(=O)N[C@@H](CCCNC(=N)N)C(=O)N1)C(=O)O` [SEQ ID NO:14], for which the IC50 at α9α10 nAChR was greater than 1000 nM. Regarding `N=C(N)NCCC[C@H](NC(=O)[C@@H]1CSSC[C@@H]2NC(=O)[C@@H](NC(=O)CN)CSSC[C@H](NC(=O)[C@H](CCCNC(=N)N)NC(=O)[C@@H]3CCCN3C(=O)[C@H](CC(=O)O)NC(=O)[C@H](CO)NC2=O)C(=O)N[C@@H](CCCNC(=N)N)C(=O)N[C@@H](Cc2c[nH]c3ccccc23)C(=O)N[C@@H](CCCNC(=N)N)C(=O)N1)C(=O)O` [SEQ ID NO:16] (H-GCCSDPRCRWRCR-OH; disulfide 2-8, 3-12), the values for the IC50 at α9α10 nAChR and on human α9α10 nAChR were 11 nM and 268 nM, respectively.

Consider `N=C(N)NCCC[C@H](NC(=O)[C@@H]1CSSC[C@@H]2NC(=O)[C@@H](NC(=O)CN)CSSC[C@H](NC(=O)[C@H](CCCNC(=N)N)NC(=O)[C@@H]3CCCN3C(=O)[C@H](CC(=O)O)NC(=O)[C@H](CO)NC2=O)C(=O)N[C@@H](CCCNC(=N)N)C(=O)N[C@@H](Cc2ccccc2)C(=O)N[C@@H](CCCNC(=N)N)C(=O)N1)C(=O)O` [SEQ ID NO:17] (H-GCCSDPRCRFRCR-OH; disulfide 2-8, 3-12), for which the IC50 against α9α10 nAChR is 8 nM; against human α9α10 nAChR, greater than 1000 nM.

`C[C@@H]1NC(=O)[C@@H]2CSSC[C@@H](C(=O)N[C@@H](CCCNC(=N)N)C(=O)O)NC(=O)[C@H](CCCNC(=N)N)NC(=O)[C@H](Cc3ccc(O)cc3)NC(=O)[C@H](CCCNC(=N)N)NC(=O)[C@H](CSSC[C@H](NC(=O)CN)C(=O)N2)NC(=O)[C@H](CCCNC(=N)N)NC(=O)[C@@H]2CCCN2C(=O)[C@H](CC(=O)O)NC1=O` [SEQ ID NO:20] (H-GCCADPRCRYRCR-OH; disulfide 2-8, 3-12): the IC50 against α9α10 nAChR is 14.5 nM; against human α9α10 nAChR, greater than 1000 nM. `N=C(N)NCCC[C@@H]1NC(=O)[C@H](Cc2ccc(O)cc2)NC(=O)[C@H](CCCNC(=N)N)NC(=O)[C@@H]2CSSC[C@H](NC(=O)CN)C(=O)N[C@@H](CSSC[C@@H](C(N)=O)NC1=O)C(=O)N[C@@H](CO)C(=O)N[C@@H](CC(=O)O)C(=O)N1CCC[C@H]1C(=O)N[C@@H](CCCNC(=N)N)C(=O)N2` [SEQ ID NO:21] (H-GCCSDPRCRYRC-NH2; disulfide 2-8, 3-12): the IC50 on α9α10 nAChR was 7.8 nM.

Take `N=C(N)NCCC[C@H](NC(=O)[C@@H]1CSSC[C@@H]2NC(=O)[C@@H](NC(=O)CN)CSSC[C@H](NC(=O)[C@H](CCCNC(=N)N)NC(=O)[C@@H]3CCCN3C(=O)[C@H](CCC(=O)O)NC(=O)[C@H](CO)NC2=O)C(=O)N[C@@H](CCCNC(=N)N)C(=O)N[C@@H](Cc2ccc(O)cc2)C(=O)N[C@@H](CCCNC(=N)N)C(=O)N1)C(=O)O` [SEQ ID NO:22] (H-GCCSEPRCRYRCR-OH; disulfide 2-8, 3-12): the IC50 against α9α10 nAChR is 6600 nM. Same read-out and setting: then `CC(C)[C@@H]1NC(=O)[C@H](CC(=O)O)NC(=O)[C@H](CO)NC(=O)[C@@H]2CSSC[C@@H](C(=O)N[C@@H](CCCNC(=N)N)C(=O)O)NC(=O)[C@H](CCCNC(=N)N)NC(=O)[C@H](Cc3ccc(O)cc3)NC(=O)[C@H](CCCNC(=N)N)NC(=O)[C@H](CSSC[C@H](NC(=O)CN)C(=O)N2)NC(=O)[C@H](CCCNC(=N)N)NC1=O` [SEQ ID NO:23] (H-GCCSDVRCRYRCR-OH; disulfide 2-8, 3-12), with 4100 nM; and `C[C@@H]1NC(=O)[C@@H]2CSSC[C@H](NC(=O)CN)C(=O)N[C@@H](CSSC[C@@H](C(=O)N[C@@H](CCCNC(=N)N)C(=O)O)NC(=O)[C@H](CCCNC(=N)N)NC(=O)[C@H](Cc3ccc(O)cc3)NC1=O)C(=O)N[C@@H](CO)C(=O)N[C@@H](CC(=O)O)C(=O)N1CCC[C@H]1C(=O)N[C@@H](CCCNC(=N)N)C(=O)N2` [SEQ ID NO:24] (H-GCCSDPRCAYRCR-OH; disulfide 2-8, 3-12), with 13000 nM. The same measure, in the same setting: then `C[C@@H]1NC(=O)[C@@H]2CCCN2C(=O)[C@H](Cc2c[nH]cn2)NC(=O)[C@H](CO)NC(=O)[C@@H]2CSSC[C@@H](C(=O)N[C@@H](CCCNC(=N)N)C(=O)O)NC(=O)[C@H](CCCNC(=N)N)NC(=O)[C@H](Cc3ccc(O)cc3)NC(=O)[C@H](CCCNC(=N)N)NC(=O)[C@H](CSSC[C@H](NC(=O)CN)C(=O)N2)NC1=O` [SEQ ID NO:25] (H-GCCSHPACRYRCR-OH; disulfide 2-8, 3-12), with greater than 10000 nM. For `N=C(N)NCCC[C@H](NC(=O)[C@@H]1CSSC[C@@H]2NC(=O)[C@@H](NC(=O)CN)CSSC[C@H](NC(=O)[C@H](CCCNC(=N)N)NC(=O)[C@@H]3CCCN3C(=O)[C@H](CC(=O)O)NC(=O)[C@H](CO)NC2=O)C(=O)N[C@@H](CCCNC(=N)N)C(=O)N[C@@H](Cc2ccc(O)cc2)C(=O)N[C@@H](CCC(N)=O)C(=O)N1)C(=O)O` [SEQ ID NO:32] (H-GCCSDPRCRYQCR-OH; disulfide 2-8, 3-12), inhibition against human α9α10 nAChR was half-maximal at 202 nM (IC50). Still for that read-out and setting: then `N=C(N)NCCC[C@H](NC(=O)[C@@H]1CSSC[C@@H]2NC(=O)[C@@H](NC(=O)CN)CSSC[C@H](NC(=O)[C@H](CCCNC(=N)N)NC(=O)[C@@H]3CCCN3C(=O)[C@H](CC(=O)O)NC(=O)[C@H](Cc3ccc(O)cc3)NC2=O)C(=O)N[C@@H](CCCNC(=N)N)C(=O)N[C@@H](Cc2ccc(O)cc2)C(=O)N[C@@H](CCCNC(=N)N)C(=O)N1)C(=O)O` [SEQ ID NO:34] (H-GCCYDPRCRYRCR-OH; disulfide 2-8, 3-12), with greater than 1000 nM; and `N=C(N)NCCC[C@H](NC(=O)[C@@H]1CSSC[C@@H]2NC(=O)[C@@H](NC(=O)CN)CSSC[C@H](NC(=O)[C@H](CCCNC(=N)N)NC(=O)[C@@H]3CCCN3C(=O)[C@H](CC(=O)O)NC(=O)[C@H](CO)NC2=O)C(=O)N[C@@H](CCCNC(=N)N)C(=O)N[C@@H](Cc2ccc(O)cc2)C(=O)N[C@@H](Cc2c[nH]cn2)C(=O)N1)C(=O)O` [SEQ ID NO:36] (H-GCCSDPRCRYHCR-OH; disulfide 2-8, 3-12), with greater than 1000 nM.

Broadly, the IC50 is the midpoint of a concentration-inhibition curve. Lower therefore signals inhibition by little substance.
